We go through 31 compounds from patent publication US20250163006A1, “New Coolants, and Preparations Containing Same” (Symrise AG, priority 2022, published 2025).

The target of the first test is T1, human TRPM8 receptor (Homo sapiens, UniProt Q7Z2W7).
T1 construct: expressed in transfected cells; host or cells: HEK293, stably transfected, tetracycline-inducible expression
T1 sequence (Q7Z2W7 whole entry): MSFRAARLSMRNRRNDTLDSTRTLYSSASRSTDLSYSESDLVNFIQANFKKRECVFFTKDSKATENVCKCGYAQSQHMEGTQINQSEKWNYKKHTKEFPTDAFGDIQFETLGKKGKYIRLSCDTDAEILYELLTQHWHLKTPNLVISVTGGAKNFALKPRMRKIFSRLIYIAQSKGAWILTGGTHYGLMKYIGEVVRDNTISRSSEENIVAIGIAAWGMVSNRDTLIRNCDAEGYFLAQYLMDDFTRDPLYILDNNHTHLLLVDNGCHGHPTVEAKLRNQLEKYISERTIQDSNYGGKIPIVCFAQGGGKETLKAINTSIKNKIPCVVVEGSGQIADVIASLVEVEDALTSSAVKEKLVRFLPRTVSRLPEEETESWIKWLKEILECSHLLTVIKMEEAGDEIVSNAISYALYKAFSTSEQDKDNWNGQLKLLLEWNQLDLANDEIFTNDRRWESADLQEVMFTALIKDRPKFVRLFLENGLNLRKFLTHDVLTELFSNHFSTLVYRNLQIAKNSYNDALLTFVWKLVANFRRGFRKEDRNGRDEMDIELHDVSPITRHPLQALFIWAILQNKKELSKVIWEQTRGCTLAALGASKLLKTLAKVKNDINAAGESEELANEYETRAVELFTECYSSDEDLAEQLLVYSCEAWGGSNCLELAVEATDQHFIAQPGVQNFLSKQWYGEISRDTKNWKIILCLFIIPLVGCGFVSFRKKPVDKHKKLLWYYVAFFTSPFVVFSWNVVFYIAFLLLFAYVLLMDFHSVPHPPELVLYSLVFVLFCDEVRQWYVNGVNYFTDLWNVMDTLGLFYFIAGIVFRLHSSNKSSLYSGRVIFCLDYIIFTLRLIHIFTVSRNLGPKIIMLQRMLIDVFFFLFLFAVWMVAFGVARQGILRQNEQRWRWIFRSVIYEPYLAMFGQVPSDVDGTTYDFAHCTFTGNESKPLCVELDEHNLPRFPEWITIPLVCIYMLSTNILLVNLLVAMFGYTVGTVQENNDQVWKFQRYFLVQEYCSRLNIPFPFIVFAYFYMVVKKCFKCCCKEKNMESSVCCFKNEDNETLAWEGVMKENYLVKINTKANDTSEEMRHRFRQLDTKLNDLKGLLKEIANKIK
Kind of test: Assay on TRPM8 modulators: Ca2+-sensitive dye (Fluo-4) fluorescence in HEK293-TRPM8 test cells. The format is cell-based. As to conditions: HEK293 cells recombinantly expressing human TRPM8. Details: relative TRPM8 activation: concentration or dose not given beside the values. From the text: The starting point for cloning the human TRPM8 receptor is an LnCaP cDNA bank. This is commercially available (e.g. BioChain, Hayward, USA) or can be produced from the andro gene-sensitive human prostate adenocarcinoma cell line LnCaP (e.g. ATCC, CRL1740 or ECACC, 891 1021 1) using standard kits.
The coding TRPM8 sequence (see e.g. http://www. ncbi.nlm.nih.gov/entrez/viewer.fcgi?db=nuccore&id=109689694) can be PCR-amplified and cloned using standard methods. The human TRPM8 gene isolated in this way was used to produce the plasmid plnd_M8. Alternatively, the TRPM8 gene can also be produced synthetically.
A stably transfected HEK293 cell line was produced as a test cell system using human TRPM8 DNA. Preference was given to HEK293, which offers the possibility of inducing TRPM8 expression using tetracycline via the plasmid introduced.
A test similar to the test already described in the literature by Behrendt H. J. et al, Br. J. Pharmacol. 141, 2004, 737-745, is performed. The agonization or antagonization of the receptor can be quantified using a Ca^2+-sensitive dye (e.g. FURA, Fluo-4 etc.). Agonists alone cause an increase in the Ca^2+ signal; antagonists cause a reduction in the Ca^2+ signal in the presence of e.g. menthol (detected in each case using the Fluo-4 dye, which has different fluorescence properties due to Ca^2+ ions).
First, a fresh culture of transformed HEK cells is prepared in cell culture flasks in the usual way. The HEK293-TRPM8 test cells are detached from the cell culture flasks using trypsin and 40,000 cells/well are seeded with 100 μl medium in 96-well plates (Greiner #655948 poly-D-lysine-coated). To induce the TRPM8 receptor, tetracycline is added to the growth medium (DMEM/HG, 10% FCS tetracycline-free, 4 mM L-glutamine, 15 μg/ml blasticidin, 100 μg/ml hygromycin B, 1 μg/ml tetracycline).
On the following day, the cells are loaded with Fluo-4AM dye and the test is performed. Proceed as follows: Addition of 100 μl/well staining solution Ca-4 kit (RB 141, Molecular Devices) to each 100 μl medium (DMEM/HG, 10% FCS tetracycline-free, 4 mM L-glutamine, 15 μg/ml blasticidin, 100 μg/ml hygromycin B, 1 μg/ml tetracycline).
Incubation in incubator, 30 minutes/37° C./5% CO2, 30 minutes/RT.
Preparation of the test substances (different concentrations in 200 μl HBSS buffer), as well as positive controls (different concentrations of menthol, icilin or lonomycin in 200 μl HBSS buffer) and negative controls (only 200 μl HBSS buffer) Addition of the test substances in quantities of 50 μl/well and measurement of the fluorescence change (e.g. in the assay device FLIPR, Molecular Devices or NovoStar, BMG) at 485 nm excitation, 520 nm emission, and evaluation of the potency of the different substances/concentrations and determination of the ECG. e.g. in the FLIPR assay device, Molecular Devices or NovoStar, BMG) at 485 nm excitation, 520 nm emission, and evaluation of the potency of the various substances/concentrations and determination of the EC50 values.
The test substances are used in triplicates in concentrations of 0.1-200 μM in the assay. Normally, the compounds are kept ready in DMSO solutions and diluted down to a maximum DMSO concentration of 2% for the assay.
The activity of the active substances in relation to activation of the TRPM8 channel is determined using the assay described. This is done in a concentration-dependent manner. For each active substance, 6 to 10 concentrations are measured as standard. A mathematical method (4-parameter or 5-parameter logistic curve fitting) can be used to determine the EC50 value as the inflection point of the sigmoidal curve from the activity values determined. These are standard biochemical methods that are familiar to experts.
As for `CNC(=O)CCSc1ncco1` [Compound A-45, N-methyl-3-oxazol-2-ylsulfanyl-propanamide], the “relative TRPM8 activation” value was 2%.

As for `CNC(=O)CNc1nnc(-c2ccccc2)c(-c2ccccc2)n1` [Compound B-43, 2-[(5,6-diphenyl-1,2,4-triazin-3-yl)amino]-N-methyl-acetamide], the “relative TRPM8 activation” value was determined as 6%.

Take `CNC(=O)CCSc1nnc(-c2ccccc2)c(-c2ccccc2)n1` [Compound B-26, 3-[(5,6-diphenyl-1,2,4-triazin-3-yl)sulfanyl]-N-methyl-propanamide]: the “relative TRPM8 activation” value stood at 56%.

`CCC(=O)C(C)Sc1nc(-c2ccccc2)c(-c2ccccc2)o1` (stereo not drawn) [Compound A-48, 2-(4,5-diphenyloxazol-2-yl) sulfanylpentan-3-one]: the “relative TRPM8 activation” value was 2%.

Regarding `COC(=O)CCc1nc(-c2ccccc2)c(-c2ccccc2)o1` [Compound A-73, methyl 3-(4,5-diphenyloxazol-2-yl)propanoate], the “relative TRPM8 activation” value is −5%.

On to `CC(Sc1nc(-c2ccccc2)c(-c2ccccc2)o1)C(=O)NC1CCCC1` (stereo not drawn) [Compound A-30, N-cyclopentyl-2-(4,5-diphenyloxazol-2-yl)sulfanyl-propanamide], for which the “relative TRPM8 activation” value was determined as 26%.

For the compound `O=C(CCc1nc(-c2ccccc2)c(-c2ccccc2)o1)C1CC1` [Compound A-31, 1-cyclopropyl-3-(4,5-diphenyloxazol-2-yl)propan-1-one], the “relative TRPM8 activation” value is given as 24%.

Take `OCCNc1nnc(-c2ccccc2)c(-c2ccccc2)n1` [Compound B-58, 2-[(5,6-diphenyl-1,2,4-triazin-3-yl)amino]ethanol]: the “relative TRPM8 activation” value turned out to be 1%.

Regarding `NC(=O)Nc1nnc(-c2ccccc2)c(-c2ccccc2)n1` [Compound B-56, (5,6-diphenyl-1,2,4-triazin-3-yl)urea], the “relative TRPM8 activation” value worked out at 2%.

For `CNCCc1nc(-c2ccccc2)c(-c2ccccc2)o1.Cl` [Compound A-62, 2-(4,5-diphenyloxazol-2-yl)ethyl-methyl-ammonium; chloride], the “relative TRPM8 activation” value was 0%.

In the case of `CCC(Sc1nnc(-c2ccc(OC)c(OC)c2)c(-c2ccc(OC)c(OC)c2)n1)C(=O)NC1CCCC1` (stereo not drawn) [Compound B-61, 2-[[5,6-bis(3,4-dimethoxyphenyl)-1,2,4-triazin-3-yl]sulfanyl]-N-cyclopentyl-butanamide], the “relative TRPM8 activation” value amounted to 1%.

Regarding `CNC(=O)C(C)Sc1nc(-c2ccc(OC)cc2)c(-c2ccc(OC)cc2)o1` (stereo not drawn) [Compound A-69, 2-[4,5-bis(4-methoxyphenyl)oxazol-2-yl]sulfanyl-N-methyl-propanamide], the “relative TRPM8 activation” value was −2%.

Turning to `CC(C)C(C)NC(=O)CSc1nc(-c2ccccc2)c(-c2ccccc2)o1` (stereo not drawn) [Compound A-46, N-(1,2-dimethylpropyl)-2-(4,5-diphenyloxazol-2-yl)sulfanyl-acetamide], the “relative TRPM8 activation” value was found to be 2%.

Regarding `Cc1nc(SC(C)C(=O)NC2CC2)[nH]c1C` (stereo not drawn) [Compound A-56, N-cyclopropyl-2-[(4,5-dimethyl-1H-imidazol-2-yl)sulfanyl] propanamide], the “relative TRPM8 activation” value stood at 1%.

For `CC(Sc1nnc(-c2ccccc2)c(-c2ccccc2)n1)C(=O)NCc1ccco1` (stereo not drawn) [Compound B-28, 2-[(5,6-diphenyl-1,2,4-triazin-3-yl)sulfanyl]-N-(2-furylmethyl)propanamide], the “relative TRPM8 activation” value is 53%.

For `CC(C)NC(=O)CSc1nc(-c2ccccc2)c(-c2ccccc2)o1` [Compound A-19, 2-(4,5-diphenyloxazol-2-yl)sulfanyl-N-isopropyl-acetamide], the “relative TRPM8 activation” value amounted to 75%.

As for `CCC(=O)C(C)Sc1nnc(-c2ccccc2)c(-c2ccccc2)n1` (stereo not drawn) [Compound B-29, 2-[(5,6-diphenyl-1,2,4-triazin-3-yl)sulfanyl]pentan-3-one], the “relative TRPM8 activation” value was 42%.

With `CNC(=O)C(C)Sc1nc(-c2ccccc2)c(-c2ccccc2)[nH]1` (stereo not drawn) [Compound A-47, 2-[(4,5-diphenyl-1H-imidazol-2-yl)sulfanyl]-N-methyl-propanamide], the “relative TRPM8 activation” value was determined as 2%.

As to `COCCSc1nnc(-c2ccccc2)c(-c2ccccc2)n1` [Compound B-30, 3-(2-methoxyethyl-sulfanyl)-5,6-diphenyl-1,2,4-triazine], the “relative TRPM8 activation” value is 41%.

With `CC(CO)NC(=O)CSc1nc(-c2ccccc2)c(-c2ccccc2)o1` (stereo not drawn) [Compound A-26, 2-(4,5-diphenyloxazol-2-yl)sulfanyl-N-(2-hydroxy-1-methyl-ethyl)acetamide], the “relative TRPM8 activation” value worked out at 51%.

As for `COC(=O)Nc1nnc(-c2ccccc2)c(-c2ccccc2)n1` [Compound B-41, methyl N-(5,6-diphenyl-1,2,4-triazin-3-yl)carbamate], the “relative TRPM8 activation” value was found to be 8%.

As for `OCCSc1nc(-c2ccccc2)c(-c2ccccc2)o1` [Compound A-60, 2-(4,5-diphenyloxazol-2-yl) sulfanylethanol], the “relative TRPM8 activation” value turned out to be 0%.

`O=C(CSc1cnc(-c2ccccc2)c(-c2ccccc2)n1)NC1CC1` [Compound B-24, N-cyclopropyl-2-(5,6-diphenylpyrazin-2-yl)sulfanyl-acetamide]: the “relative TRPM8 activation” value is listed as 68%.

As for `O=C(CSc1nc(-c2ccccc2)c(-c2ccccc2)o1)NC1CCCC1` [Compound A-38, N-cyclopentyl-2-(4,5-diphenyloxazol-2-yl)sulfanyl-acetamide], the “relative TRPM8 activation” value stood at 6%.

Turning to `CNC(=O)C(C)Sc1nnc(-c2ccc(O)cc2)c(-c2ccc(O)cc2)n1` (stereo not drawn) [Compound B-45, 2-[[5,6-bis(4-hydroxyphenyl)-1,2,4-triazin-3-yl]sulfanyl]-N-methyl-propanamide], the “relative TRPM8 activation” value turned out to be 5%.

On to `CNC(=O)CSc1nc(-c2ccc(OC)cc2)c(-c2ccc(OC)cc2)o1` [Compound A-72, 2-[4,5-bis(4-methoxyphenyl)oxazol-2-yl]sulfanyl-N-methyl-acetamide], for which the “relative TRPM8 activation” value is −5%.

With `CN(C)CCSc1nc(-c2ccccc2)c(-c2ccccc2)o1` [Compound A-23, 2-(4,5-diphenyloxazol-2-yl)sulfanyl-N,N-dimethyl-ethanamine], the “relative TRPM8 activation” value is reported as 62%.

With `O=C(COc1nnc(-c2ccccc2)c(-c2ccccc2)n1)NC1CC1` [Compound B-53, N-cyclopropyl-2-[(5,6-diphenyl-1,2,4-triazin-3-yl)oxy]acetamide], the “relative TRPM8 activation” value worked out at 2%.

Staying with this test, now noted: TRPM8 activation, HEK293-TRPM8 cells, 6 to 10 concentrations, logistic curve fitting; read-out: EC50 value.
Turning to `CCNC(=O)C1CC(C)CCC1C(C)C` [WS-3, L-menthanecarboxylic acid N-ethylamide, reference compound], the EC50 was 1.72 µM.

The same test, now with this note: Table 5; HEK293-TRPM8 cells; read-out: TRPM8 EC50.
As for `CC(Sc1nnc(-c2ccccc2)c(-c2ccccc2)n1)C(=O)N1CCCC1` (stereo not drawn) [Compound B-18, 2-[(5,6-diphenyl-1,2,4-triazin-3-yl)sulfanyl]-1-pyrrolidin-1-yl-propan-1-one], the EC50 was determined as 5.36 µM.

Still in this test, the particulars now being: Table 6; HEK293-TRPM8 cells; read-out: TRPM8 EC50.
In the case of `CNC(=O)CSc1nc(-c2ccccc2)c(-c2ccccc2)o1` [Compound A-15, 2-(4,5-diphenyloxazol-2-yl)sulfanyl-N-methyl-acetamide], the EC50 came out at 7.14 µM.

Still in this test, the particulars now being: Table 7; HEK293-TRPM8 cells; read-out: TRPM8 EC50.
With `CC(Sc1nnc(-c2ccccc2)c(-c2ccccc2)n1)C(=O)N1CCCC1` (stereo not drawn) [Compound B-18, 2-[(5,6-diphenyl-1,2,4-triazin-3-yl)sulfanyl]-1-pyrrolidin-1-yl-propan-1-one], the EC50 amounted to 5.36 µM.

Still in this test, the particulars now being: Table 8; HEK293-TRPM8 cells; read-out: TRPM8 EC50.
As to `CNC(=O)CSc1nc(-c2ccccc2)c(-c2ccccc2)o1` [Compound A-15, 2-(4,5-diphenyloxazol-2-yl)sulfanyl-N-methyl-acetamide], the EC50 was determined as 7.14 µM.
